System: NEIL1, NTH1, OGG1 and FPG
Test: glycosylase/AP lyase cleavage assays with common substrates (Tg, 8-oxo-Gua) across glycosylases
Format: biochemical, human; Escherichia coli (FPG)
Conditions: all enzymes except for NTH1
Procedure: The 384-well fluorogenic assay was carried out in a 20 µL reaction mixture in 20 mM Tris-HCl pH 8.0, 100 mM KCl, and 0.1% BSA, with 5 nM active enzyme and 50 nM substrate. Possible inhibitors were incubated with the enzyme for at least 5 min at room temperature in a black, low-volume 384-well plate before addition of an equal volume of substrate to start the reaction. The plates were spun for 30 s at 1000 rcf to remove bubbles. The reactions were incubated at 37°C and fluorescence data collected on an Infinite M200 (Tecan, Mannedorf, Switzerland) equipped with standard optics (excitation filter 525 nm, and emission filter 598 nm). For the gel-based assay, reactions were initiated as described for the fluorogenic assay, but quenched with 20 µL 95% formamide at 20 min. The products were separated by electrophoresis through a 15% polyacrylamide gel containing 8 M urea and visualized by a Typhoon scanner (GE Life Sciences, Piscataway, NJ). The fraction of cleaved product was measured using ImageQuant software and analyzed using GraphPad Prism 6.
In humans, several glycosylases, including OGG1, NTH1, NEIL2, and NEIL3 may participate in the removal of a wide variety of oxidized bases. […] To address this question, assays were designed to measure inhibition of OGG1 and NTH1, as well as the Escherichia coli glycosylase-AP lyase, FPG. […]

Cc1cc(/C=C/C#N)cc(C)c1Nc1nc(Nc2ccc3c(c2)OCO3)c2nc[nH]c2n1 [Purine P8]
relative inhibition among the compounds: poorest inhibition

Reference: paper PMC3857224, “Inhibition of DNA Glycosylases via Small Molecule Purine Analogs” (PLoS ONE, 2013)
